What all share (experiment): growth of human tumour cells (NCI), 48 h
The subject of assay [1] is A498 renal.
Assay [2] concerns EKVX NSCLC.
For assay [3], the system named is HOP-62 NSCLC.
For assay [4], the system named is HOP-92 NSCLC.
Assay [5] concerns HT29 colon.
Assay [6] deals with MCF7 breast.
The test system of assay [7] is SF-295 CNS.
The subject of assay [8] is SF-539 CNS.
Assay [9] has as its system SK-MEL-5 melanoma.
Assay [10] concerns SK-OV-3 ovarian.

“And” between values parts separate entries of the source, which are not always exact repeats. Identical values can stand only once.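 Exposure lasted 48 hours, with cells grown in 96-well plates and compounds tested at five concentrations. The concentration for 50% growth inhibition is given as GI50. TGI marks complete inhibition of growth.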

Consider `C(#CP(c1ccccc1)c1ccccc1)P(C#CP(c1ccccc1)c1ccccc1)c1ccccc1`, for which the TGI in assay [1], in assay [2], in assay [3], in assay [4], in assay [5] and in assay [6] was > 100 µM in each case. The TGI in assay [7] is 97.6 µM; in [8] it was > 100 µM; in assay [9], > 100 µM; in [10] it was 26.1 µM.
For `COc1ccccc1C1(c2c(OC)c(=O)c2=O)SCCCS1`, the TGI in assay [1], in assay [2], in [3], in assay [4], in assay [5] and in assay [6] was > 100 µM each time. Moreover, the TGI in assay [7], in [8], in [9] and in assay [10] was > 100 µM each time.
Take `O=C(/C(=C\I)c1ccccc1)c1ccccc1`: the TGI in assay [1] was determined as 30.3 µM; in [2], 32.3 µM; in assay [3], 13.7 µM; in [4], 28.2 µM; in assay [5] it was 4.95 µM; in assay [6], 4.22 µM. Besides, the TGI was 32.9 µM in assay [7], 35.1 µM in assay [8], 31.3 µM in assay [9] and 32.3 µM in assay [10].
`O=C(O)/C=C/c1ccc2c(c1)CC1(Cc3ccccc3C1)C2`: the TGI in assay [1], in [2], in assay [3], in [4], in assay [5] and in assay [6] was > 100 µM throughout. Also, the TGI in assay [7], in assay [8], in [9] and in assay [10] was > 100 µM throughout.
`O=C(O)/C=C/c1c[nH]c(=O)[nH]c1=O`: the GI50 in [1] was > 500 µM; in assay [3] it was > 250 µM; in [4], > 500 µM and 76.3 µM; in assay [5] it was > 500 µM; in assay [7] it was > 158 µM. The TGI is > 500 µM in [1]; > 500 µM in assay [2]; > 250 µM in [3]; > 500 µM in assay [4]; > 500 µM in assay [5]; > 500 µM in assay [6]. The TGI in assay [7] was > 232 µM; in assay [8], > 500 µM; in assay [9] it was > 500 µM; in assay [10] it was > 500 µM.
For the compound `COc1ccc(NCC(=O)Nn2c(-c3ccccc3)nc3ccccc3c2=O)cc1`, the TGI in [1] is 88.6 µM; in [2], > 100 µM; in assay [3], > 100 µM; in assay [4], > 100 µM; in [5], > 100 µM; in assay [6] it was 41.2 µM. Also, the TGI is > 100 µM in [7], > 100 µM in assay [8], 32.8 µM in assay [9] and > 100 µM in assay [10].
Consider `C=C(Cl)C(Cl)(CCl)CCC(Br)C(C)(C)Br` (centres undefined), for which the TGI in [1], in [2], in assay [3], in assay [4], in assay [5] and in assay [6] was > 10 µM throughout. Besides, the TGI in assay [7], in assay [8], in [9] and in [10] was > 10 µM each time.
As to `O=C(O)[C@H](CCC[C@H]1C(=O)O[C@H](c2ccccc2)[C@H](c2ccccc2)N1C(=O)OCc1ccccc1)N[C@@H](c1ccccc1)[C@H](O)c1ccccc1`, the TGI in assay [1] was 62.1 µM; in [2], > 100 µM; in assay [3] it was 39 µM; in assay [4] it was 49.5 µM; in [5] it was > 100 µM; in assay [6], > 100 µM. In addition, the TGI in assay [7] was 81 µM; in assay [8] it was 34.4 µM; in assay [9], 43 µM; in assay [10], > 100 µM.
Turning to `O=C1CSC(c2cccc(Cl)c2)N1c1ccc(-c2ccc(-n3c(-c4ccccc4)nc4ccccc4c3=O)cc2)cc1` (centres undefined), the TGI was > 100 µM in [1]; > 100 µM in [2]; > 100 µM in [3]; 56.5 µM in assay [4]; > 100 µM in assay [5]; > 100 µM in assay [6]. The TGI in assay [7] is > 100 µM; in assay [8], > 100 µM; in assay [9], 84.4 µM; in [10] it was > 100 µM.
Take `OC1(c2ccc(Cl)cc2)c2ccccc2-c2nc3ccccc3n21` (centres undefined): the TGI in [1], in assay [2], in assay [3], in assay [4], in assay [5] and in [6] was > 100 µM each time. Moreover, the TGI in assay [7], in assay [8], in [9] and in assay [10] was > 100 µM throughout.
`C#CC(O)/C=C/CCCCCCC#CC/C=C\CC#CCCCCCCCCC(O)C#C` (centres undefined): the TGI in assay [1] was found to be 28.9 µM; in assay [2] it was 10.3 µM; in [3], 12 µM; in [4], 5.05 µM; in assay [5], 12.3 µM; in [6] it was 39.5 µM. Further, the TGI in [7] is 30.3 µM; in assay [8], 40.4 µM; in assay [9], 9.71 µM; in [10], 32.3 µM.
As to `Cc1cc2nc3c(C#N)c4c(c(-c5ccc(Cl)cc5)n3c2cc1C)CCC4`, the TGI in assay [1] was 79.4 µM; in assay [2], 54.4 µM; in [3], 46.2 µM; in assay [4] it was 50.7 µM; in assay [5] it was 40.5 µM; in [6] it was > 100 µM. In addition, the TGI in [7] is 39.8 µM; in assay [8], 78.9 µM; in [9] it was 40.3 µM; in assay [10], 34.1 µM.
With `CN(C)c1ccc(/C=C/c2sc3ccccc3[n+]2C)cc1`, the TGI in assay [1] is 26.2 µM and 32.7 µM; in [2] it was 31.9 µM and 19.8 µM; in assay [3], 14.9 µM and > 100 µM; in [4] it was 5.34 µM and 8.69 µM; in assay [5], 11.8 µM and 12 µM; in assay [6], 17.6 µM and 7.41 µM. Besides, the TGI was 24.8 µM and 23.1 µM in assay [7]; 9.91 µM and 17.8 µM in assay [8]; 3.93 µM and 3.27 µM in [9]; 17.1 µM in [10]. The GI50 in [2] is 9.19 µM and 2.31 µM; in [3] it was 3.7 µM and 8.53 µM; in assay [5], 2.71 µM and 1.14 µM; in assay [6], 3.94 µM and 1.46 µM.
Turning to `CCC(C)C1=C(O)[N+]2([O-])Oc3ccc(-c4c(O)c(O)c(-c5ccc(OC(C)=O)cc5)c(OC(C)=O)c4OC(C)=O)cc3OC2(C(C)CC)C(=O)N1O` (centres undefined), the TGI in [1], in [2], in assay [3], in assay [4], in assay [5] and in assay [6] was > 50 µM each time. In addition, the TGI in assay [7], in assay [8], in assay [9] and in assay [10] was > 50 µM throughout.
On to `CC1(C)COC2=C(C1)C(=O)c1ccccc1C2=O`, for which the TGI in assay [1] is 3.56 µM; in assay [2] it was 3.59 µM; in assay [3] it was 3.45 µM; in assay [4], 3.85 µM; in assay [5], 5.41 µM; in [6], 2.99 µM. For the same compound, the TGI in assay [7] stood at 3 µM; in assay [8], 2.9 µM; in assay [9], 1.88 µM; in assay [10], 3.72 µM.
On to `Cc1ccc2nc(-c3ccc(C(C)(C)C)cc3)oc(=O)c2c1`, for which the TGI in assay [1] stood at 62.8 µM; in assay [2], 69.8 µM; in [3], 68.4 µM; in assay [4], 63.2 µM; in assay [5], 38.3 µM; in assay [6], 63.1 µM. Further, the TGI in assay [7] is 49 µM; in assay [8], 40.6 µM; in [9] it was 27.6 µM; in [10], 62.1 µM.
Consider `COC1(CC[C@@H](C)COC2OC(CO)C(O)C(O)C2O)O[C@H]2C[C@H]3[C@@H]4CC=C5C[C@@H](OC6OC(CO)C(O)C(OC7OC(CO)C(O)C(O)C7O)C6OC6OC(C)C(O)C(O)C6O)CC[C@]5(C)[C@H]4CC[C@]3(C)[C@H]2[C@@H]1C` (some centres undefined), for which the TGI in assay [1] is 26.9 µM; in [2] it was 35.3 µM; in assay [3] it was 24.3 µM; in assay [4], 12.3 µM; in assay [5], > 23.1 µM; in assay [6], 37.6 µM. The TGI is 11.3 µM in assay [7], 7.11 µM in assay [8], 27.5 µM in [9] and 15 µM in [10].
Consider `COc1ccc(-c2c(-c3ccccc3)c(C)nc3nc(SC)nc(SC)c23)cc1OC`, for which the TGI in assay [1] is 56.9 µM; in [2], > 100 µM; in assay [3], 40.5 µM; in [4], 48.2 µM; in assay [5], > 100 µM; in assay [6], > 100 µM. Moreover, the TGI was 31.5 µM in assay [7], 23 µM in [8], 27.8 µM in assay [9] and > 100 µM in assay [10].
For the compound `C/C(=N\Nc1nc2ccccc2s1)c1cc2ccccc2cn1`, the TGI is 29 µM in assay [1]; 69.4 µM in assay [2]; 41.7 µM in [3]; 93.6 µM in [4]; 11 µM in assay [5]; > 100 µM in assay [6]. Further, the TGI amounted to 19.3 µM in assay [7], 25.6 µM in assay [8], 11.9 µM in [9] and 10.7 µM in assay [10].

(Values after PubChem BioAssay (NCI).)
